Results on nine compounds are retold here after ChEMBL document CHEMBL4265875, “A comprehensive review on Aurora kinase: Small molecule inhibitors and clinical trial studies” (Eur J Med Chem, 2017).

Data set [1] concerns HCT-116. In words: Antitumor activity against human HCT116 cells xenografted in mouse assessed as inhibition of tumor growth at 20 mg/kg. Format: functional. The note with it: read-out: TGI. In general terms: Xenograft models place foreign cells or tissue in a host animal.
Data set [2] is described as follows: Half life in tumor of mouse xenografted with human HCT116 cells at 15 to 20 mg/kg. Format: ADME, organism-based, Neoplasm.
Data set [3] concerns HCT-116. Briefly: Antitumor activity against human HCT116 cells xenografted in mouse assessed as inhibition of tumor growth at 15 mg/kg. Format: functional. The note with it: read-out: TGI.
For data set [4], the system named is HL-60. Briefly: Antitumor activity against human HL60 cells xenografted in rat assessed as inhibition of tumor growth at 25 mg/kg, iv bid. Format: functional. The note with it: HL-60, iv, read-out: TGI.
Data set [5] can be described thus: Growth inhibition of in human myeloma cells. Format: functional, cell-based.
A short description of data set [6]: Inhibition of Xenopus laevis aurora B (60 to 361 residues)/INCENP.
The subject of data set [7] is HCC1806. In words: Antiproliferation activity against human HCC1806 cells assessed as inhibition of cell proliferation. In kind it is functional, cell-based.
For data set [8], the system named is AU565. Briefly: Antiproliferation activity against human AU565 cells assessed as inhibition of cell proliferation. In kind it is functional, cell-based.
In data set [9] the test system is SW48. In words: Antitumor activity against human SW48 cells xenografted in nude rat assessed as reduction in tumor growth at 45 mg/kg, po administered twice daily for 2 days per week for 3 weeks and measured on day 27 relative to untreated control. In kind it is functional.
Data set [10] relates to MCF7. Briefly: Antiproliferation activity against human MCF7 cells assessed as inhibition of cell proliferation. Format: functional, cell-based.
Data set [11] has as its system HCT-116. In words: Antitumor activity against human HCT116 cells xenografted in SCID mouse assessed as reduction in tumor bulk at 30 mg/kg, po bid for 12 days relative to untreated control. In kind it is functional.
Data set [12] concerns SW48. Briefly: Antitumor activity against human SW48 cells xenografted in nude rat assessed as reduction in tumor growth at 15 mg/kg, po administered twice daily for 2 days per week measured on day 10 relative to untreated control. In kind it is functional.
Data set [13] relates to SW48. In words: Antitumor activity against human SW48 cells xenografted in nude rat assessed as reduction in tumor growth at 15 mg/kg, po administered twice daily for 2 days per week for 3 weeks and measured on day 27 relative to untreated control. In kind it is functional.
Data set [14] concerns CAL-85-1. In words: Antiproliferation activity against human CAL851 cells assessed as inhibition of cell proliferation. In kind it is functional, cell-based.
Data set [15] concerns HCT-116. In words: Antitumor activity against human HCT116 cells xenografted in SCID mouse assessed as reduction in tumor bulk at 15 mg/kg, po bid for 12 days relative to untreated control. Format: functional.
Data set [16] can be described thus: Plasma concentration in F344/N Jcl-rnu rat xenografted with luciferase expressing human HeLa cells at 32 mg/kg, po BID for 2 days. Format: ADME, organism-based.
For data set [17], the system named is HCC1143. In words: Antiproliferation activity against human HCC1143 cells assessed as inhibition of cell proliferation. In kind it is functional, cell-based.
Data set [18] deals with SW48. In words: Antitumor activity against human SW48 cells xenografted in nude rat assessed as reduction in tumor growth at 45 mg/kg, po administered twice daily for 2 days per week measured on day 10 relative to untreated control. Format: functional.
Data set [19] in a line: Plasma concentration in F344/N Jcl-rnu rat xenografted with luciferase expressing human HeLa cells at 16 mg/kg, po BID for 2 days. Format: ADME, organism-based.
The subject of data set [20] is PC-3. In words: Antitumor activity against human PC3 cells xenografted in nude mouse assessed as inhibition of tumor growth at 30 mg/kg, po qd. The note with it: PC-3, po, read-out: TGI. Format: functional.
Data set [21] relates to PC-3. Briefly: Antitumor activity against human PC3 cells xenografted in nude mouse assessed as inhibition of tumor growth at 10 mg/kg, po qd. Format: functional. The note with it: PC-3, po, read-out: TGI.
The target in data set [22] is T1, Aurora kinase B (Homo sapiens, UniProt Q96GD4). In words: Inhibition of aurora B in human MDA-MB-231 cells assessed as reduction in enzyme autophosphorylation incubated for 4 hrs by high-content immunofluorescence imaging. In kind it is cell-based.
T1 sequence (Q96GD4 whole entry): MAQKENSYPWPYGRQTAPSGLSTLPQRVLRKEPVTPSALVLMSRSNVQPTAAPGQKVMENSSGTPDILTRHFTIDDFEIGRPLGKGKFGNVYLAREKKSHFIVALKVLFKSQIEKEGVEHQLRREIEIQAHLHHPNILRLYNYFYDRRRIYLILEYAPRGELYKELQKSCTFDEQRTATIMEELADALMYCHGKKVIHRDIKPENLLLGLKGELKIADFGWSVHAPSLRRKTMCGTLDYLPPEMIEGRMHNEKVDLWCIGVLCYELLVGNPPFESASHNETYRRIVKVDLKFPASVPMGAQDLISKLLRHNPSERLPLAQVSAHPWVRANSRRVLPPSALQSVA
Data set [23] deals with HCT-116. Briefly: Antitumor activity against human HCT116 cells xenografted in mouse assessed as inhibition of tumor growth at 20 mg/kg, po qd for 10 days. The note with it: HCT-116, po, 240 h, read-out: TGI. In kind it is functional.
Data set [24] has as its target T1, Aurora kinase B. Briefly: Inhibition of aurora B in human MDA-MB-231 cells assessed as reduction in phosphorylation of histone H3 on Ser10 incubated for 4 hrs by high-content immunofluorescence imaging. In kind it is cell-based.
Data set [25] addresses T1, Aurora kinase B. Briefly: Inhibition of full-length His-tagged recombinant aurora B (unknown origin) expressed in insect cells using biotinylated LRRWSLG substrate by scintillation proximity assay. A general note: In a scintillation proximity assay essentially only radioactivity close to the scintillant gives light.
In data set [26] the test system is HCT-116. Briefly: Antitumor activity against human HCT116 cells xenografted in mouse assessed as inhibition of tumor growth at 15 to 60 mg/kg, po. In kind it is functional.
The target in data set [27] is T2, Aurora kinase B/Inner centromere protein (Homo sapiens, UniProt Q96GD4). In words: Inhibition of Aurora B/INCENP (unknown origin) assessed as affinity constant pre-incubated for 1 hr followed by FL-PKAtide substrate and ATP addition. Format: protein-complex assay.
T2 sequence (Q96GD4 whole entry): as above
T2 sequence (Q9NQS7 whole entry, further chain): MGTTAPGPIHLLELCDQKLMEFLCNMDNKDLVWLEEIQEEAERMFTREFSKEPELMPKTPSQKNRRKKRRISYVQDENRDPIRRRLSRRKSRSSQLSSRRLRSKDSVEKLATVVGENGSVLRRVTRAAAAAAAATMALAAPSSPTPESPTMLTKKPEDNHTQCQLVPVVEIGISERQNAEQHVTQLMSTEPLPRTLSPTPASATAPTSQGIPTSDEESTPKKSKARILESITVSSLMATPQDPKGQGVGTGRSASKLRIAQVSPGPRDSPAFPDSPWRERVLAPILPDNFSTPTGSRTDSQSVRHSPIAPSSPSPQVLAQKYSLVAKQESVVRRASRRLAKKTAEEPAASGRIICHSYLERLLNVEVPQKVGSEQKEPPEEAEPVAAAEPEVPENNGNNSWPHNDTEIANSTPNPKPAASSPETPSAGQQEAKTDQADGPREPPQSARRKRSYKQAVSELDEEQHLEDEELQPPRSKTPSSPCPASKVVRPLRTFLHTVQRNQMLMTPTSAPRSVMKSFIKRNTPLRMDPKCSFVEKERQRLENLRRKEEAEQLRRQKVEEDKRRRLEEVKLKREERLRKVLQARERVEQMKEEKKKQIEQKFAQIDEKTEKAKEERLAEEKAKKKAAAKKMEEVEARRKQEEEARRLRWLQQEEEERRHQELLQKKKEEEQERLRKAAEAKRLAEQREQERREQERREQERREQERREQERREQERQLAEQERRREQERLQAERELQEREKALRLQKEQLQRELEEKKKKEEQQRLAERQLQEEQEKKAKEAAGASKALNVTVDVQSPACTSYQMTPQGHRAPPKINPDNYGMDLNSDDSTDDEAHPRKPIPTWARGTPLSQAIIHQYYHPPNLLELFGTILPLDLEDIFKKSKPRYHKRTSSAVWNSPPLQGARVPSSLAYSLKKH
Data set [28] concerns the target T2, Aurora kinase B/Inner centromere protein. In words: Inhibition of Aurora B/INCENP (unknown origin) pre-incubated for 1 hr followed by FL-PKAtide substrate and ATP addition. In kind it is protein-complex assay.
Data set [29] deals with Aurora kinase B/Inner centromere protein (Homo sapiens) (UniProt Q96GD4+Q9NQS7). Briefly: Inhibition of Aurora B/INCENP (unknown origin) assessed as inhibitor-enzyme complex half life pre-incubated for 1 hr followed by FL-PKAtide substrate and ATP addition. Format: protein-complex assay.

With `O=C(Nc1c[nH]nc1-c1nc2ccc(CN3CCOCC3)cc2[nH]1)NC1CC1` [AT-9283], the inhibition in vivo at 20 mg/kg in data set [1] stood at 76%. Moreover, in data set [2], the half-life (as a rule, the time in which the quantity being followed falls by half) was 2.5 h. In addition, the inhibition in vivo at 15 mg/kg in data set [3] was 67%.
Regarding `CO[C@@H](C(=O)N1Cc2[nH]nc(NC(=O)c3ccc(N4CCN(C)CC4)cc3)c2C1)c1ccccc1` [DANUSERTIB], the inhibition in vivo at 25 mg/kg in data set [4] is 75%.
As for `Cc1cc(Nc2cc(N3CCN(C)CC3)nc(/C=C/c3ccccc3)n2)n[nH]1` [ENMD-2076], in [5], the IC50 (as a rule, the concentration that gives 50% inhibition) was 2990 to 7060 nM.
Compound `CCS(=O)(=O)Nc1ccc2c(c1)/C(=C(/Nc1ccc(CN3CCCCC3)cc1)c1ccccc1)C(=O)N2` [HESPERADIN] registered an IC50 in data set [6] of 250 nM.
With `O=C(O)[C@]1(Cc2cccc(Nc3nccs3)n2)CC[C@@H](Oc2cccc(Cl)c2F)CC1` [MK-5108], the concentration for half-maximal inhibition (IC50) in data set [7] worked out at 560 nM; in data set [8], 450 nM; in data set [10] it was 520 nM; in [14] it was 740 nM; in [17], 420 nM. The T/C (as a rule, the result in the treated group divided by that in the control group, in per cent) in data set [9] is reported as 32%; in [11], 6%; in data set [12] it was 35%; in data set [13], 58%; in [15], 10%; in data set [18] it was 7%. Also, the concentration at 48 h was 4.4 µM in [16] and 1.7 µM in data set [19].
`O=C(O)c1ccc(Nc2ncc3c(n2)-c2ccc(Cl)cc2C(c2c(F)cccc2F)=NC3)cc1` [MLN-8054]: the inhibition in vivo at 30 mg/kg in [20] was 84%. Also, the inhibition in vivo at 10 mg/kg in data set [21] turned out to be 76%.
As for `CC(=O)NCC(=O)N1[C@@H]2CC[C@H]1c1ccc(Nc3ncc(C(F)(F)F)c(NC4CCC4)n3)cc12` [PF-03814735], the IC50 in [22] stood at 11 nM; in data set [24] it was 50 nM; in data set [25], 5 nM. The inhibition in vivo at 20 mg/kg in data set [23] is no more than 50%.
For the compound `CCc1cccc(CC)c1NC(=O)N1Cc2[nH]nc(NC(=O)c3ccc(N4CCN(C)CC4)cc3)c2C1` [PHA-680632], the tumour growth inhibition (TGI) (in general, the reduction of tumour growth relative to the control group) in data set [26] worked out at 70%.
As to `CCS(=O)(=O)c1cccc(-c2cc(C(=O)NC3CCN(C)CC3)c(C)c3[nH]c4ncc(C)cc4c23)c1` [TAK-901], the Ki (commonly a measure of affinity in units of concentration, obtained from inhibition or displacement) in data set [27] came out at 0.02 nM. The same compound yielded an IC50 in data set [28] of 15 nM. For the same compound, in data set [29], the T1/2 turned out to be 15.3 h.
